# Measurements as given in US20060258671A1, “Phenylpyridylpiperazine compounds” (priority 2005, published 2006).
# Biological target: T1, type H3 central histamine receptors (Mus musculus, UniProt P58406)
# T1 construct: from tissue; host or cells: brain of living NMRI mice, treated in vivo; brains removed afterwards for the metabolite RIA
# Experiment: Cerebral levels of Nτ-methylhistamine in the NMRI mouse (ex vivo, RIA)
# Conditions: one hour after treatment
# Experimental: The purpose of this study, which was carried out in accordance with the method of Taylor et al. (Biochem. Pharm., 1992, 44, 1261-1267), is to evaluate the ex vivo activity of the compounds of the present invention as antagonists of type H3 central histamine receptors. […] An increase in the cerebral concentrations of N^τ-methylhistamine indicates an increase in the turn-over of histamine by blockage of the type H3 central histamine receptors.
# NMRI mice (18-20 g) are treated intraperitoneally or orally with compounds of the present invention or with their carrier (20 ml/kg). One hour after the pharmacological treatment, the animals are sacrificed, and their brains are removed, frozen in liquid nitrogen, weighed and homogenised in 0.1N HClO4 at 4° C. The homogenised products are centrifuged (15 000 g, 17 min, 4° C.). The supernatants are recovered and divided into aliquots. The aliquots are frozen in liquid nitrogen and stored at −80° C. until analysis.
# Determination of the cerebral levels of N′-methylhistamine is carried out by radio-immunological assay (RIA) using an assay kit. The tissue levels of N^τ-methylhistamine are expressed in μg/g of fresh brain. […]
# T1 sequence (P58406 whole entry): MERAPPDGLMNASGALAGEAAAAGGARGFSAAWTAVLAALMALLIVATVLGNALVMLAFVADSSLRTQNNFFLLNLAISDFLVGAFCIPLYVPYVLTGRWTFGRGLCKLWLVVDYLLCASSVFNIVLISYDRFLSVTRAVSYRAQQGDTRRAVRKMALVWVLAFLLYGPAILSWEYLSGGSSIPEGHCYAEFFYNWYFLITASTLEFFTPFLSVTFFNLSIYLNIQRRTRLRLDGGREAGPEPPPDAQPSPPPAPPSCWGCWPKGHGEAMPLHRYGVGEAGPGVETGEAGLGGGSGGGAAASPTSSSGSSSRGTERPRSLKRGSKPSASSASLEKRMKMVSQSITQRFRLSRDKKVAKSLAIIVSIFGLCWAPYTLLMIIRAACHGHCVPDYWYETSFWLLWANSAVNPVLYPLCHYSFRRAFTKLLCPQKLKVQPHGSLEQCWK
increase in the endogenous cerebral concentrations of Nτ-methylhistamine (10 mg/kg PO),increase in the endogenous cerebral concentrations of Nτ-methylhistamine (3 mg/kg PO),Compound
162%,–,"CS(=O)(=O)Nc1ccc(-c2ccc(N3CCN(C4CC4)CC3)nc2)cc1.Cl.Cl [Example 4, N-{4-[6-(4-Cyclopropylpiperazin-1-yl)pyridin-3-yl]phenyl}methane-sulphonamide dihydrochloride]"
–,138%,"CC(C)N1CCN(c2ccc(-c3ccc(NS(=O)(=O)C(C)C)cc3)cn2)CC1.Cl.Cl [Example 7, N-{4-[6(4-Isopropylpiperazin-1-yl)pyridin-3-yl]phenyl}propane-2-sulphonamide dihydrochloride]"
